In data set [1] the test system is ethoxyresorufin O-deethylase (EROD) induction in rat hepatoma H-4-II-E cells. As to conditions: Table 1, PCB congeners; cited from earlier work.
Data set [2] concerns aryl hydrocarbon hydroxylase (AHH) induction in rat hepatoma H-4-II-E cells. As to conditions: Table 1, PCB congeners; cited from earlier work.
Data set [3] deals with T1, 2,3,7,8-TCDD hepatic cytosolic receptor protein (Rattus norvegicus, UniProt P41738).
T1 sequence (P41738 10-853): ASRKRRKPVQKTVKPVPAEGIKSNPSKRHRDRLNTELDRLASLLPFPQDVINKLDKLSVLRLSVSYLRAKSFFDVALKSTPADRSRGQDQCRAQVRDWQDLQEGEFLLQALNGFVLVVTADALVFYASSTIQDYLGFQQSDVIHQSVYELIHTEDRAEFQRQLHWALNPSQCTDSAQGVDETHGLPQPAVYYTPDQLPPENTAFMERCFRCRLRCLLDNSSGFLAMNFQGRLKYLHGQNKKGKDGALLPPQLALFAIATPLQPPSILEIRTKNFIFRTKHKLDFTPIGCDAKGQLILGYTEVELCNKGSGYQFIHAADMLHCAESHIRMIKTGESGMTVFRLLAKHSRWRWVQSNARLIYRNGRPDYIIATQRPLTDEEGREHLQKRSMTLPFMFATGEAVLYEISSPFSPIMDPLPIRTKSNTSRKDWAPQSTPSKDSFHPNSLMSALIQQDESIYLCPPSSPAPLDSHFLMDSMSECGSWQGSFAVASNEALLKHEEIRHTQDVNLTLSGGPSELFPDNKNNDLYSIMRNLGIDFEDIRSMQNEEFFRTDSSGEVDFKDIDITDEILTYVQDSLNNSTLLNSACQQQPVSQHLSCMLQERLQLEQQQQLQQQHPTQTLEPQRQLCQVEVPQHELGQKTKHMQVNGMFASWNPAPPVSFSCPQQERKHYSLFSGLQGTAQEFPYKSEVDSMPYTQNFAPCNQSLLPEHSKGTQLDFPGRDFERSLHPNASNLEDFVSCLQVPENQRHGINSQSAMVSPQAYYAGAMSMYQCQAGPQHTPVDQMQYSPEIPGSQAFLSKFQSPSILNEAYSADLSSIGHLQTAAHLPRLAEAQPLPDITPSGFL
The data set can be described thus: Competitive binding to the rat hepatic cytosolic 2,3,7,8-TCDD receptor protein. The following applies: for competition with [3H]-2,3,7,8-TCDD for the receptor binding protein: dose-response competition experiments, at high concentrations.

The test system of a further data set is pullets. As to conditions: eggs from pullets receiving the PCB in their diet at 20 ppm; cited from earlier work.
The next data set deals with rats. The following applies: cited from earlier work.
The test system of the next data set is DMAP N-demethylase. The data set can be described thus: In vivo induction of rat hepatic microsomal DMAP N-demethylase. As to conditions: 300 umole/kg, immature male Wistar rats (Figure 7).
In data set [4] the test system is hepatic microsomal AHH and EROD. The data set can be described thus: In vivo induction of rat hepatic microsomal AHH and EROD. As to conditions: 300 umole/kg, immature male Wistar rats (Figure 7).
For data set [5] the following is noted: injected intraperitoneally on days 1 and 3, 150 umole/kg per injection in corn oil, killed on day 6.

For `Clc1ccc(-c2cc(Cl)c(Cl)c(Cl)c2)c(Cl)c1` [2',3,4,4',5-Penta], the “-log EC50 EROD induction” value in data set [1] is 5.95. The “-log EC50 AHH induction” value in data set [2] is reported as 5.41.
With `Clc1cc(Cl)c(-c2cc(Cl)c(Cl)cc2Cl)cc1Cl` [2,2',4,4',5,5'-Hexa, 2,2',4,4',5,5'-hexachlorobiphenyl], in data set [3], the “competition with [3H]-2,3,7,8-TCDD for the receptor binding protein” value is on record as “some competition”.
Regarding `Clc1cc(Cl)c(-c2cc(Cl)c(Cl)c(Cl)c2)cc1Cl` [2,3',4,4',5,5'-Hexa], the “-log EC50 EROD induction” value in data set [1] is on record as 5.05. Further, the “-log EC50 AHH induction” value in data set [2] is recorded as 4.88.
Turning to `Clc1ccc(-c2cc(Cl)c(Cl)cc2Cl)cc1Cl` [2,3',4,4',5-Penta, 2,3',4,4',5-pentachlorobiphenyl], in the data set on pullets, the embryo mortality was 100%. The “-log EC50 EROD induction” value in data set [1] was 5.05. For the same compound, the “-log EC50 AHH induction” value in data set [2] is on record as 4.94. Also, the thymic atrophy entry with rats was “thymic atrophy”.
Regarding `Clc1cc(-c2ccc(Cl)c(Cl)c2Cl)cc(Cl)c1Cl` [2,3,3',4,4',5'-Hexa, 2,3,3',4,4',5'-hexachlorobiphenyl], the “-log EC50 EROD induction” value in data set [1] was 5.90. For the same compound, in data set [2], the “-log EC50 AHH induction” value is reported as 6.15. The thymic atrophy result in the data set with rats is “thymic atrophy”.
With `Clc1ccc(-c2cc(Cl)c(Cl)c(Cl)c2Cl)cc1Cl` [2,3,3',4,4',5-Hexa, 2,3,3',4,4',5-hexachlorobiphenyl], the “-log EC50 EROD induction” value in data set [1] was 6.05. Further, the “-log EC50 AHH induction” value in data set [2] was 5.68. Further, in the data set on rats, the thymic atrophy result is given as “thymic atrophy”.
Regarding `Clc1ccc(-c2ccc(Cl)c(Cl)c2Cl)cc1Cl` [2,3,3',4,4'-Penta, 2,3,3',4,4'-Pentachlorobiphenyl], the “-log EC50 EROD induction” value in data set [1] is recorded as 6.92. Further, the “-log EC50 AHH induction” value in data set [2] is 7.06. In addition, the thymic atrophy result with rats was “thymic atrophy”.
Take `Clc1ccc(-c2cc(Cl)c(Cl)c(Cl)c2Cl)cc1` [2,3,4,4',5-Penta, 2,3,4,4',5-Pentachlorobiphenyl]: the “-log EC50 EROD induction” value in data set [1] is recorded as 6.25. In addition, the “-log EC50 AHH induction” value in data set [2] was 6.02. In the data set with DMAP N-demethylase, the “in vivo induction of DMAP N-demethylase” value is listed as “inducers”. Besides, in data set [4], the “in vivo induction of microsomal AHH and EROD” value was “significantly induced both”.
With `Clc1ccc(-c2ccc(Cl)c(Cl)c2Cl)cc1` [2,3,4,4'-Tetra], in data set [1], the “-log EC50 EROD induction” value is 5.72. Besides, the “-log EC50 AHH induction” value in data set [2] is recorded as 4.96.
As for `Clc1cc(-c2ccccc2)c(Cl)c(Cl)c1Cl` [2,3,4,5-Tetra, 2,3,4,5-tetrachlorobiphenyl], in data set [3], the “competition with [3H]-2,3,7,8-TCDD for the receptor binding protein” value was “some competition”. Moreover, in data set [4], the “in vivo induction of the cytochrome P-450-dependent monooxygenases (AHH, EROD, DMAP N-demethylase)” value is “do not induce any”.
As to `Clc1ccc(-c2cc(Cl)c(Cl)c(Cl)c2)cc1Cl` [3,3',4,4'5-Penta, 3,3',4,4',5-pentachlorobiphenyl], the “-log EC50 EROD induction” value in data set [1] was 9.61. Besides, in data set [2], the “-log EC50 AHH induction” value is 9.62.
For `Clc1ccc(-c2ccc(Cl)c(Cl)c2)cc1Cl` [3,3',4,4'-Tetra, 3,3',4,4'-tetrachlorobiphenyl], in data set [1], the “-log EC50 EROD induction” value is given as 7.05. In addition, the “-log EC50 AHH induction” value in data set [2] is on record as 7.55.
As to `FC(F)(F)c1ccc(-c2ccc(C(F)(F)F)c(C(F)(F)F)c2)cc1` [3,4,4'-tritrifluoromethylbiphenyl], in data set [3] (displacement of [3H]-2,3,7,8-TCDD), the “competitive binding affinity for the receptor protein” value is reported as “unexpectedly low”.
As to `Cc1ccc2cc3c(ccc4ccccc43)c3c2c1CC3` [3-MC, 3-methylcholanthrene, reference compound], in data set [1], the “-log EC50 EROD induction” value is 6.20. In data set [2], the “-log EC50 AHH induction” value is 5.89.
As for `Clc1cc(-c2ccc(-c3ccccc3)cc2)c(Cl)c(Cl)c1Cl` [C6H5, 4'-Phenyl-2,3,4,5-tetrachlorobiphenyl], the “in vivo induction of microsomal AHH and EROD” value in data set [4] is given as “significantly induced both”.
Regarding `CC(C)(C)c1ccc(-c2cc(Cl)c(Cl)c(Cl)c2Cl)cc1` [C(CH3)3, 4'-tert-butyl-2,3,4,5-tetrachlorobiphenyl], the “in vivo induction of DMAP N-demethylase” value in the data set with DMAP N-demethylase was “inactive”. Besides, the “in vivo induction of microsomal AHH and EROD” value in data set [4] is “significantly induced both”.
In the same order, the values of `O=[N+]([O-])c1ccc(-c2cc(Cl)c(Cl)c(Cl)c2Cl)cc1` [NO2, 4'-Nitro-2,3,4,5-tetrachlorobiphenyl] are “inducers” and “significantly induced both”.
As for `Clc1cc2c(cc1Cl)Oc1cc(Cl)c(Cl)cc1O2` [TCDD, 2,3,7,8-tetrachlorodibenzo-p-dioxin, reference compound], the “-log EC50 EROD induction” value in data set [1] is on record as 10.10. Further, the “-log EC50 AHH induction” value in data set [2] is given as 10.02.
For `Clc1cc(-c2ccc(Br)cc2)c(Cl)c(Cl)c1Cl` [X = Br, 4'-Bromo-2,3,4,5-tetrachlorobiphenyl], the “in vivo induction of DMAP N-demethylase” value with DMAP N-demethylase is “inducers”. Also, in data set [4], the “in vivo induction of microsomal AHH and EROD” value was “significantly induced both”.
In the same order, the values of `FC(F)(F)c1ccc(-c2cc(Cl)c(Cl)c(Cl)c2Cl)cc1` [X = CF3, 4'-Trifluoromethyl-2,3,4,5-tetrachlorobiphenyl] are “inactive” and “significantly induced both”.
For `Cc1ccc(-c2cc(Cl)c(Cl)c(Cl)c2Cl)cc1` [X = CH3, 4'-Methyl-2,3,4,5-tetrachlorobiphenyl], the “in vivo induction of the cytochrome P-450-dependent monooxygenases (AHH, EROD, DMAP N-demethylase)” value in data set [4] was “do not induce any”.
Consider `N#Cc1ccc(-c2cc(Cl)c(Cl)c(Cl)c2Cl)cc1` [X = CN, 4'-Cyano-2,3,4,5-tetrachlorobiphenyl], for which the “in vivo induction of DMAP N-demethylase” value in the data set on DMAP N-demethylase is listed as “inducers”. Also, the “in vivo induction of microsomal AHH and EROD” value in data set [4] is “significantly induced both”.
For `CC(=O)c1ccc(-c2cc(Cl)c(Cl)c(Cl)c2Cl)cc1` [X = COCH3, 4'-Acetyl-2,3,4,5-tetrachlorobiphenyl], in data set [4], the “in vivo induction of the cytochrome P-450-dependent monooxygenases (AHH, EROD, DMAP N-demethylase)” value is listed as “do not induce any”.
Take `Fc1ccc(-c2cc(Cl)c(Cl)c(Cl)c2Cl)cc1` [X = F, 4'-Fluoro-2,3,4,5-tetrachlorobiphenyl]: the “in vivo induction of DMAP N-demethylase” value in the data set on DMAP N-demethylase is reported as “inducers”. Also, in data set [4], the “in vivo induction of microsomal AHH and EROD” value is listed as “significantly induced both”.
In the case of `Oc1ccc(-c2cc(Cl)c(Cl)c(Cl)c2Cl)cc1` [X = OH, 4'-Hydroxy-2,3,4,5-tetrachlorobiphenyl], in data set [4], the “in vivo induction of the cytochrome P-450-dependent monooxygenases (AHH, EROD, DMAP N-demethylase)” value is reported as “do not induce any”.
For `CC(C)c1ccc(-c2cc(Cl)c(Cl)c(Cl)c2Cl)cc1` [X = i-C3H7, 4'-Isopropyl-2,3,4,5-tetrachlorobiphenyl], the “in vivo induction of DMAP N-demethylase” value in the data set with DMAP N-demethylase is “inactive”. Also, the “Residue levels in rat liver” value in data set [5] is listed as 1-4 ppm. In addition, the “in vivo induction of microsomal AHH and EROD” value in data set [4] is given as “significantly induced both”.
For `Clc1cc(-c2ccc(I)cc2)c(Cl)c(Cl)c1Cl` [X= I, 4'-Iodo-2,3,4,5-tetrachlorobiphenyl], the “in vivo induction of DMAP N-demethylase” value in the data set on DMAP N-demethylase is “inactive”.

(Values after PMC1568752 (Environmental Health Perspectives, 1985).)
